For test [1], the system named is UACC257 melanoma cell line (RB-sufficient). The test can be described thus: scRNA-seq of UACC257 melanoma cell line before and after abemaciclib for 1 week. The class given is cell-based. As to conditions: UACC257, post treatment with abemaciclib; 10% prior to treatment. How it is done: (§1) Applicants performed scRNA-seq on these cell lines before and after treatment with abemaciclib for 1 week (FIG. 41).
(§2) To test this hypothesis, Applicants studied the effect of abemaciclib on the immune resistance program in melanoma cell lines. […] Applicants profiled each cell line with scRNA-seq before and after treatment with abemaciclib for 1 week (FIGS. 49D-E), analyzing over 23,000 cells in these and follow-up conditions (below).
(§3) For droplet-based scRNA-seq, experiments were performed on the 10× Genomics Chromium platform, with the Chromium Single Cell 3′ Library & Gel Bead Kit v2 and Chromium Single Cell 3′ Chip kit v2 according to the manufacturer's instructions in the Chromium Single Cell 3′ Reagents Kits V2 User Guide. Briefly, 6,000 cells were re suspended in PBS supplemented with 0.04% BSA and loaded to each channel. The cells were then partitioned into Gel Beads in Emulsion in the GemCode instrument, where cell lysis and barcoded reverse transcription of RNA occurred, followed by amplification, shearing and 5′ adaptor and sample index attachment.

For test [2], the system named is IGR37 melanoma cell line (RB-sufficient). The test can be described thus: scRNA-seq of IGR37 melanoma cell line before and after abemaciclib for 1 week. The class given is cell-based. Conditions: IGR37, post-treatment with abemaciclib; 10% before treatment. How it is done: as §1, §2, §3

Turning to `CCN1CCN(Cc2ccc(Nc3ncc(F)c(-c4cc(F)c5nc(C)n(C(C)C)c5c4)n3)nc2)CC1` [abemaciclib], the “cells with exceptionally strong expression of the immune resistance program ("immune resistant" cells)” value in test [1] turned out to be 1%. Also, the “cells with exceptionally strong expression of the uICR signature / immune resistance program ("immune resistant" cells)” value in test [2] is listed as 2%.
